In the kinase profiling compilation of Christmann-Franck et al. (2016):
Several values for one entry are separate records, joined by “and”; a condition that tells them apart may be missing. Equal entries are not always repeated.

Experiments:
Experiment in all cases: radiometric filter-binding kinase assay
PAK4 (human) = PAK4 (human) (UniProt O96013); details: compound 100.0 µM; ATP 5 µM
MYLK (human) = MYLK (human) (UniProt Q15746); details: compound 100.0 µM; ATP 50 µM
[1] = biological target: PRKAA1 PRKAB2 PRKAG1 (human) (UniProt O43741+Q13131+P54619); details: compound 100.0 µM; ATP 20 µM
SYK (human) = SYK (human) (UniProt P43405); details: compound 100.0 µM; ATP 20 µM
PDPK1 (human) = PDPK1 (human) (UniProt O15530); details: compound 100.0 µM
RIPK2 (human) = RIPK2 (human) (UniProt O43353); details: compound 100.0 µM; ATP 20 µM
PRKCZ (human) = PRKCZ (human) (UniProt Q05513); details: compound 100.0 µM; ATP 5 µM
MAP2K6 (human) = MAP2K6 (human) (UniProt P52564); details: compound 100.0 µM; ATP 50 µM
NTRK1 (human) = NTRK1 (human) (UniProt P04629); details: compound 100.0 µM; ATP 20 µM
GSK3B (human) = GSK3B (human) (UniProt P49841); details: compound 100.0 µM; ATP 5 µM
MARK3 (human) = MARK3 (human) (UniProt P27448); details: compound 100.0 µM; ATP 5 µM
PRKACA (human) = PRKACA (human) (UniProt P17612); details: compound 100.0 µM; ATP 20 µM
MARK1 (human) = MARK1 (human) (UniProt Q9P0L2); details: compound 100.0 µM; ATP 20 µM
GCK (human) = GCK (human) (UniProt Q12851); details: compound 100.0 µM; ATP 20 µM
EPHA2 (human) = EPHA2 (human) (UniProt P29317); details: compound 100.0 µM; ATP 50 µM
MAPKAPK3 (human) = MAPKAPK3 (human) (UniProt Q16644); details: compound 100.0 µM; ATP 20 µM
MINK1 (human) = MINK1 (human) (UniProt Q8N4C8); details: compound 100.0 µM; ATP 50 µM
RPS6KA1 KD1 KD2 (human) = RPS6KA1 KD1 KD2 (human) (UniProt Q15418); details: compound 100.0 µM; ATP 50 µM
AURKB (human) = AURKB (human) (UniProt Q96GD4); details: compound 100.0 µM; ATP 20 µM
FGFR1 (human) = FGFR1 (human) (UniProt P11362); details: compound 100.0 µM; ATP 20 µM
STK33 (human) = STK33 (human) (UniProt Q9BYT3); details: compound 100.0 µM; ATP 50 µM
MAPK3 (human) = MAPK3 (human) (UniProt P27361); details: compound 100.0 µM; ATP 5 µM
HIPK2 (human) = HIPK2 (human) (UniProt Q9H2X6); details: compound 100.0 µM; ATP 5 µM
DAPK1 (human) = DAPK1 (human) (UniProt P53355); details: compound 100.0 µM; ATP 5 µM
MAP3K7 TAB1 (human) = MAP3K7 TAB1 (human) (UniProt Q15750+O43318); details: compound 100.0 µM; ATP 5 µM
EPHB2 (human) = EPHB2 (human) (UniProt P29323); details: compound 100.0 µM; ATP 20 µM
PIM2 (human) = PIM2 (human) (UniProt Q9P1W9); details: compound 100.0 µM; ATP 5 µM
STK3 (human) = STK3 (human) (UniProt Q13188); details: compound 100.0 µM; ATP 20 µM
INSRR (human) = INSRR (human) (UniProt P14616); details: compound 100.0 µM; ATP 5 µM
STK16 (human) = STK16 (human) (UniProt O75716); details: compound 100.0 µM; ATP 50 µM
MAP3K9 (human) = MAP3K9 (human) (UniProt P80192); details: compound 100.0 µM; ATP 20 µM
MAP3K11 (human) = MAP3K11 (human) (UniProt Q16584); details: compound 100.0 µM; ATP 20 µM
[2] = tested on: PAK2 (human), Q13177 [T402E]; details: compound 100.0 µM; ATP 20 µM
MAPKAPK5 (human) = MAPKAPK5 (human) (UniProt Q8IW41); details: compound 100.0 µM; ATP 20 µM
CLK2 (human) = CLK2 (human) (UniProt P49760); details: compound 100.0 µM; ATP 5 µM
Chain of CLK2 (human) (P49760 whole entry, looked up): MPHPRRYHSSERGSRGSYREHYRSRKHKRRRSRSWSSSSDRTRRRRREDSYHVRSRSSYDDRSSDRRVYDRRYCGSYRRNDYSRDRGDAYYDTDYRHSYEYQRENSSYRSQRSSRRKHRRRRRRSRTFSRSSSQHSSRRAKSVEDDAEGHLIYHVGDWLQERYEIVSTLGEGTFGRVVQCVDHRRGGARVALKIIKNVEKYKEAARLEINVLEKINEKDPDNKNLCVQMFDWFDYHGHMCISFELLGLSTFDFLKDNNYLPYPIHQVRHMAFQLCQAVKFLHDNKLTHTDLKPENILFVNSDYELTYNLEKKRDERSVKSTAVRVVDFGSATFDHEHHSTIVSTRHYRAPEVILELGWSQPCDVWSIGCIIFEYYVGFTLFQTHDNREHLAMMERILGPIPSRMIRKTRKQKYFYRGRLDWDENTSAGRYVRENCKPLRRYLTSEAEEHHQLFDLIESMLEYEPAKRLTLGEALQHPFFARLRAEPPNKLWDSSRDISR

Chain of STK3 (human) (Q13188 whole entry, looked up): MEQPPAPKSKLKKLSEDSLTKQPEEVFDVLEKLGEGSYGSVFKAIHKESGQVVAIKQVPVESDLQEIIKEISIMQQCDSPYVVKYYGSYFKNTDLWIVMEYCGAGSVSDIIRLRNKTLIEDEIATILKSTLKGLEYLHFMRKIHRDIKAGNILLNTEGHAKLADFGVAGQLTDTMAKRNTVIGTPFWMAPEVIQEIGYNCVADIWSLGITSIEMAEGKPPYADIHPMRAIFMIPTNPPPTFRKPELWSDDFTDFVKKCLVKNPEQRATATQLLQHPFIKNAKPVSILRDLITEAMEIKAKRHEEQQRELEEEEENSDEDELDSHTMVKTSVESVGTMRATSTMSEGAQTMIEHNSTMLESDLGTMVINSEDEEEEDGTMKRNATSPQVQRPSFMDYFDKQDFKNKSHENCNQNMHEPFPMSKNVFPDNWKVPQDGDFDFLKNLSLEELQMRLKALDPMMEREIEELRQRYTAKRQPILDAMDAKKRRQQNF
Chain of MAPKAPK3 (human) (Q16644 whole entry, looked up): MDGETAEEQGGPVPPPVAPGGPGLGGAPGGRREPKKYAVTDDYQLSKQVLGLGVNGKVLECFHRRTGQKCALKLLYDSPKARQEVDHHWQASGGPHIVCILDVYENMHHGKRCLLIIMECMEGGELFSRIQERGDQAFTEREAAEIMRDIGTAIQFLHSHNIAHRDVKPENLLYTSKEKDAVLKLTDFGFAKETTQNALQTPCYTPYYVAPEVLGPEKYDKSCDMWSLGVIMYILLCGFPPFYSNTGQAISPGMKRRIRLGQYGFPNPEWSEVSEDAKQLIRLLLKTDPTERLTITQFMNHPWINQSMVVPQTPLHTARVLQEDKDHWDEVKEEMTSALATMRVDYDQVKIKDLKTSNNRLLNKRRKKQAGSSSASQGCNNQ
Chain of GCK (human) (Q12851 whole entry, looked up): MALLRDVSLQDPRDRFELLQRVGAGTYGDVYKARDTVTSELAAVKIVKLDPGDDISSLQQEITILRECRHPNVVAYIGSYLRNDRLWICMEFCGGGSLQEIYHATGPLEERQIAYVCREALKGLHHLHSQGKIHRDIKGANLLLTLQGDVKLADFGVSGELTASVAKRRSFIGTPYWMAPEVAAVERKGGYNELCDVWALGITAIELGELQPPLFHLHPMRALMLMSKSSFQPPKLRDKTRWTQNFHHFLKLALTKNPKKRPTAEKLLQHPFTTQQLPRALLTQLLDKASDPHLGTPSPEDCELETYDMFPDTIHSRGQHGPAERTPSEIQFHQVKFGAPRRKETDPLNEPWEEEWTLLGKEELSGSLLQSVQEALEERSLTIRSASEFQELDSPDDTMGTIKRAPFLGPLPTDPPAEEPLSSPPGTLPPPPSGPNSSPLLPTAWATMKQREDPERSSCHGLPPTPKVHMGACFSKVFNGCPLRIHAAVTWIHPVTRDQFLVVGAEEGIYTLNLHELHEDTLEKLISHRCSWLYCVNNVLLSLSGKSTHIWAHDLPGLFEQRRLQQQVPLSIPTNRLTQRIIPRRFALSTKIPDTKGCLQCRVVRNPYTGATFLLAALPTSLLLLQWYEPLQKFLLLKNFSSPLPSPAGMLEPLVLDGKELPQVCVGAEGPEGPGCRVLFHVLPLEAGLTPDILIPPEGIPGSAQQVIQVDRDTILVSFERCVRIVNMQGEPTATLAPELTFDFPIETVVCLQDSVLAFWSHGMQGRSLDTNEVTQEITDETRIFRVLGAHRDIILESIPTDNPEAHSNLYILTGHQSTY
Chain of GSK3B (human) (P49841 whole entry, looked up): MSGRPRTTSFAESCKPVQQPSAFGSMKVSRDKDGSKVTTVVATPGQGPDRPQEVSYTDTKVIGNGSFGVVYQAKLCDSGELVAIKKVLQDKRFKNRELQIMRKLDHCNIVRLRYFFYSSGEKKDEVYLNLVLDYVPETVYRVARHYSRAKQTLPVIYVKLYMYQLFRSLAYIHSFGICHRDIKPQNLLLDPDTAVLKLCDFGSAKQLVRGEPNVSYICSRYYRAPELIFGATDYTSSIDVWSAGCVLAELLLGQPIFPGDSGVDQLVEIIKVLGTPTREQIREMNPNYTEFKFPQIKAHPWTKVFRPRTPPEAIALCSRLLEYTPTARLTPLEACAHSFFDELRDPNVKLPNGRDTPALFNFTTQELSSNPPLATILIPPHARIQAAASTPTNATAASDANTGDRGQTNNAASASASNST
Chain of MARK3 (human) (P27448 whole entry, looked up): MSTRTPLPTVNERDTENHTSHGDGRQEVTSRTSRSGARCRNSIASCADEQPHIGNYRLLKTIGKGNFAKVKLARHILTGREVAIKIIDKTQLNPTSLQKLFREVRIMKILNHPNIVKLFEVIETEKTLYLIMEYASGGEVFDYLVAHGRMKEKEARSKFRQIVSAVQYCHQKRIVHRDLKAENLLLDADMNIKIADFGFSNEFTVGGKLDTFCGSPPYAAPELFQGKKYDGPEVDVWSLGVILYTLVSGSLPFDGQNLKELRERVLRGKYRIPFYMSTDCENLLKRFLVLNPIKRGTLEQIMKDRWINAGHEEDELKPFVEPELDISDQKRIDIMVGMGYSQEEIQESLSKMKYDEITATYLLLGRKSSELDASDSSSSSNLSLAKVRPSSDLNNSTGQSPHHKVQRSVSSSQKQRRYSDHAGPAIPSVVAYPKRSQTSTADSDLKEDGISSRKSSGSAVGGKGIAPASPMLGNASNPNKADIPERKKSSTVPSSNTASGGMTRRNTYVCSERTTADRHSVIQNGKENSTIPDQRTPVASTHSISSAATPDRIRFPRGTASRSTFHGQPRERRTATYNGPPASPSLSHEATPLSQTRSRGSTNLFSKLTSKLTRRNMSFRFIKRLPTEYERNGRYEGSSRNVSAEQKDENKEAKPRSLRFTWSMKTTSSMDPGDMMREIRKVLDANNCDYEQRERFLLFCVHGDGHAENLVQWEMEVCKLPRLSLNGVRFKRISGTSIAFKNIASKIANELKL
Chain of PAK2 (human), Q13177 [T402E] (Q13177 whole entry T402E, looked up): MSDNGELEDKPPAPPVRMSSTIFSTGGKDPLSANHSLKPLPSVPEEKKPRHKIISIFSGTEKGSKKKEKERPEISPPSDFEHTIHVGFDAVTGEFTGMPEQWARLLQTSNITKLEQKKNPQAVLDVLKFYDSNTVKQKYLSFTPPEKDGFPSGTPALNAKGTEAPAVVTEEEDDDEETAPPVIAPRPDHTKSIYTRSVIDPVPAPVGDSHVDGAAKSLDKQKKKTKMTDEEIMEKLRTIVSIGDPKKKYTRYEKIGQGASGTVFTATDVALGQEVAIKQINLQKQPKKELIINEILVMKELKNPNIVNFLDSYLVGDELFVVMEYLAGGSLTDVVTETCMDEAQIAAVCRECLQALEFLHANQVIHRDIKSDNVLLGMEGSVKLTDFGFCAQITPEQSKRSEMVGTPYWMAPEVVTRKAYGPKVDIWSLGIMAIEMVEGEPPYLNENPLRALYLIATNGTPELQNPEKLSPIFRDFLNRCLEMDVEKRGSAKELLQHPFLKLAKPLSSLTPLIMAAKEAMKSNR
Chain of MAP3K11 (human) (Q16584 whole entry, looked up): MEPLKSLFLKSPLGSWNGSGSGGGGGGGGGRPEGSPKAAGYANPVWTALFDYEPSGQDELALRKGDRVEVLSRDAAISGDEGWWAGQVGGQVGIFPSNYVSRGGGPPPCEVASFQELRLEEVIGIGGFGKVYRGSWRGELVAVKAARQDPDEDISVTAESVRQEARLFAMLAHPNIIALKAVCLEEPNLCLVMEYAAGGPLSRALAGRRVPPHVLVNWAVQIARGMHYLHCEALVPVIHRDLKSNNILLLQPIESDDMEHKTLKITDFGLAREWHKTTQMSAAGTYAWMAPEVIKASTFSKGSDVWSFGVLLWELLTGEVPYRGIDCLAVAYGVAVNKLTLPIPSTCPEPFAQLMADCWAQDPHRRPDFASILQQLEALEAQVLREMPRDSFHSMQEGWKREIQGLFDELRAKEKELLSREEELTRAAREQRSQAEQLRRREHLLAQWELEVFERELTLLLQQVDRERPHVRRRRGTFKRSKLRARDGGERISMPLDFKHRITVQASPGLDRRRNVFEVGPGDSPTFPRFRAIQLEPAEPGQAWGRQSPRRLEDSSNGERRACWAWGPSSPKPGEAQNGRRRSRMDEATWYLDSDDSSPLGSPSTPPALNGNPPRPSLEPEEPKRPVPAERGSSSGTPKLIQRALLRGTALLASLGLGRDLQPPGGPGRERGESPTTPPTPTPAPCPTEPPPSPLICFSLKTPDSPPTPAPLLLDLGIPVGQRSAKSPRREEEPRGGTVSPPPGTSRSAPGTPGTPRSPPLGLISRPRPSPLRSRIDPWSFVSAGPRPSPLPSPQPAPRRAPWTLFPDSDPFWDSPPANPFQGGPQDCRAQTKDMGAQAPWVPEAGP

Structure (SMILES)	inhibition (PAK4 (human)) [%]	inhibition (MYLK (human)) [%]	inhibition [1] [%]	inhibition (SYK (human)) [%]	inhibition (PDPK1 (human); ATP 20 µM) [%]	inhibition (PDPK1 (human); ATP 50 µM) [%]	inhibition (RIPK2 (human)) [%]	inhibition (PRKCZ (human)) [%]	inhibition (MAP2K6 (human)) [%]	inhibition (NTRK1 (human)) [%]	inhibition (GSK3B (human)) [%]	inhibition (MARK3 (human)) [%]	inhibition (PRKACA (human))	inhibition (MARK1 (human)) [%]	inhibition (GCK (human)) [%]	inhibition (EPHA2 (human)) [%]	inhibition (MAPKAPK3 (human)) [%]	inhibition (MINK1 (human)) [%]	inhibition (RPS6KA1 KD1 KD2 (human)) [%]	inhibition (AURKB (human)) [%]	other results
CC(=O)Nc1nc2cnc(-c3c(C)cccc3C)cn2n1	0	0	0	10	0	0	5	0	0	0	8	0	0% and 1%	0	0	0	74	0	0	0	inhibition (FGFR1 (human)): 3%; inhibition (STK33 (human)): 0%; inhibition (MAPK3 (human)): 10%; inhibition (HIPK2 (human)): 18%; inhibition (DAPK1 (human)): 0%; inhibition (MAP3K7 TAB1 (human)): 0%; inhibition (EPHB2 (human)): 0%; inhibition (PIM2 (human)): 5%; inhibition (STK3 (human)): 0%; inhibition (INSRR (human)): 0%; inhibition (STK16 (human)): 0%; inhibition (MAP3K9 (human)): 0%; inhibition (MAP3K11 (human)): 0%; inhibition [2]: 0%; inhibition (MAPKAPK5 (human)): 17%; inhibition (CLK2 (human)): 28%
O=c1c(NC(=S)NCc2ccccc2)cnc2[nH]ccn12	18	0	0	12	0	0	0	0	0	0	13	9	0%	13	0	12	21	0	17	0	inhibition (FGFR1 (human)): 6%; inhibition (STK33 (human)): 13%; inhibition (MAPK3 (human)): 7%; inhibition (HIPK2 (human)): 0%; inhibition (DAPK1 (human)): 0%; inhibition (MAP3K7 TAB1 (human)): 20%; inhibition (EPHB2 (human)): 3%; inhibition (PIM2 (human)): 4%; inhibition (STK3 (human)): 3%; inhibition (INSRR (human)): 0%; inhibition (STK16 (human)): 0%; inhibition (MAP3K9 (human)): 0%; inhibition (MAP3K11 (human)): 11%; inhibition [2]: 5%; inhibition (MAPKAPK5 (human)): 0%; inhibition (CLK2 (human)): 3%
O=C(Nc1cnc2[nH]cnn2c1=O)c1ccccc1	3	0	0	0	1	0	0	0	3	0	0	5	0%	0	0	0	0	0	15	0	inhibition (FGFR1 (human)): 0%; inhibition (STK33 (human)): 0%; inhibition (MAPK3 (human)): 13%; inhibition (HIPK2 (human)): 0%; inhibition (DAPK1 (human)): 0%; inhibition (MAP3K7 TAB1 (human)): 15%; inhibition (EPHB2 (human)): 6%; inhibition (PIM2 (human)): 0%; inhibition (STK3 (human)): 0%; inhibition (INSRR (human)): 0%; inhibition (STK16 (human)): 10%; inhibition (MAP3K9 (human)): 0%; inhibition (MAP3K11 (human)): 0%; inhibition [2]: 0%; inhibition (MAPKAPK5 (human)): 0%; inhibition (CLK2 (human)): 0%
O=C(c1cccc(-c2cc3c(=O)[nH]cnc3s2)c1)N1CCOCC1	34	8	50	0	16	53	12	0	2	41	70	29	17% and 42%	31	7	37	61	40	47	6	inhibition (FGFR1 (human)): 57%; inhibition (STK33 (human)): 0%; inhibition (MAPK3 (human)): 19%; inhibition (HIPK2 (human)): 38%; inhibition (DAPK1 (human)): 0%; inhibition (MAP3K7 TAB1 (human)): 78%; inhibition (EPHB2 (human)): 27%; inhibition (PIM2 (human)): 13%; inhibition (STK3 (human)): 27%; inhibition (INSRR (human)): 0%; inhibition (STK16 (human)): 4%; inhibition (MAP3K9 (human)): 0%; inhibition (MAP3K11 (human)): 23%; inhibition [2]: 0%; inhibition (MAPKAPK5 (human)): 0%; inhibition (CLK2 (human)): 46%

Further lines, with some results ahead:

inhibition (PAK4 (human)) [%]	inhibition (MYLK (human)) [%]	inhibition [1] [%]	inhibition (SYK (human)) [%]	inhibition (PDPK1 (human); ATP 20 µM) [%]	inhibition (PDPK1 (human); ATP 50 µM) [%]	inhibition (RIPK2 (human)) [%]	inhibition (PRKCZ (human)) [%]	inhibition (MAP2K6 (human)) [%]	inhibition (NTRK1 (human)) [%]	inhibition (GSK3B (human)) [%]	inhibition (MARK3 (human)) [%]	inhibition (PRKACA (human))	inhibition (MARK1 (human)) [%]	inhibition (GCK (human)) [%]	inhibition (EPHA2 (human)) [%]	inhibition (MAPKAPK3 (human)) [%]	inhibition (MINK1 (human)) [%]	inhibition (RPS6KA1 KD1 KD2 (human)) [%]	inhibition (AURKB (human)) [%]	Structure (SMILES)	other results
30	0	0	0	41	25	65	0	18	15	62	24	34% and 38%	27	0	37	56	60	59	19	COc1ccc(-c2cc3c(=O)[nH]cnc3s2)cc1OC	inhibition (FGFR1 (human)): 32%; inhibition (STK33 (human)): 0%; inhibition (MAPK3 (human)): 26%; inhibition (HIPK2 (human)): 58%; inhibition (DAPK1 (human)): 0%; inhibition (MAP3K7 TAB1 (human)): 45%; inhibition (EPHB2 (human)): 17%; inhibition (PIM2 (human)): 25%; inhibition (STK3 (human)): 9%; inhibition (INSRR (human)): 0%; inhibition (STK16 (human)): 12%; inhibition (MAP3K9 (human)): 4%; inhibition (MAP3K11 (human)): 8%; inhibition [2]: 0%; inhibition (MAPKAPK5 (human)): 5%; inhibition (CLK2 (human)): 50%
50	25	40	30	20	57	3	0	10	88	51	86	8% and 12%	49	95	33	54	75	21	81	Nc1cnc2c(-c3c(F)cccc3F)cccn2c1=O	inhibition (FGFR1 (human)): 88%; inhibition (STK33 (human)): 4%; inhibition (MAPK3 (human)): 23%; inhibition (HIPK2 (human)): 18%; inhibition (DAPK1 (human)): 0%; inhibition (MAP3K7 TAB1 (human)): 80%; inhibition (EPHB2 (human)): 29%; inhibition (PIM2 (human)): 21%; inhibition (STK3 (human)): 64%; inhibition (INSRR (human)): 51%; inhibition (STK16 (human)): 3%; inhibition (MAP3K9 (human)): 79%; inhibition (MAP3K11 (human)): 63%; inhibition [2]: 41%; inhibition (MAPKAPK5 (human)): 83%; inhibition (CLK2 (human)): 91%
